The values that follow come from patent publication US20110059979A1, “Piperidine/Cyclohexane Carboxamide Derivatives For Use as Vanilloid Receptor Modulators” (GLAXO GROUP LIMITED, priority 2003, published 2011).

This experiment has as its system FCA-Induced Hyperalgesia. Description: FCA-Induced Hyperalgesia in the Guinea Pig. The format is in vivo. The settings on record: dose of 5 mg/kg po. The procedure: (b) FCA-Induced Hyperalgesia in the Guinea Pig Compounds having a pKb>7.0 in vitro, according to model (a) were tested in this model of hyperalgesia (see WO 2004/024710 for details) and shown to be active.

For the compound `Cn1c(=O)ccc2c(NC(=O)C3CCN(c4ccc(Cl)cc4)CC3)cccc21` [Example 1, 1-(4-Chlorophenyl)-N-(1-methyl-2-oxo-1,2-dihydro-5-quinolinyl)-4-piperidinecarboxamide], the “activity in FCA-induced hyperalgesia model” value is “significant activity”.
